Laboratory results as given in patent US20240238423A9, “TETRAHYDROISOQUINOLINE HETEROBIFUNCTIONAL BCL-XL DEGRADERS” (Treeline Biosciences, Inc., priority 2022, published 2024).
Read-outs that look alike come from different tables or passages of the source.

Target: T1, Human BCL-XL protein (N-terminal HiBiT tagged BCL-XL in HT1080 cells) (Homo sapiens, UniProt Q07817)
T1 construct: expressed in transfected cells; host or cells: HT-1080 (ATCC CCL-121), stably transduced with lentivirus pLV-UBC-N-HiBiT-BCL-XL-PGK-puro and selected with puromycin
T1 sequence (Q07817 whole entry): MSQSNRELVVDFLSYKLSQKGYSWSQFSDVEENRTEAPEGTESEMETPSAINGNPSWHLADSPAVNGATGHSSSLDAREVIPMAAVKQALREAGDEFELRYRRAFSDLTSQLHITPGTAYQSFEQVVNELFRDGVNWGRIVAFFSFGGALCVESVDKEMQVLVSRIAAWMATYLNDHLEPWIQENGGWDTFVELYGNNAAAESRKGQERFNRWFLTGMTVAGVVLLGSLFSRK
Assay: HiBiT based degradation assay
Format: cell-based
Details: HT1080 cells expressing HiBiT-BCL-XL; for Ymin (6 h) / Ymin (24 h): BCL-XL degradation normalized with DMSO control; for DC50: BCL-XL degradation
How it was run: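 This HiBiT degradation assay measured loss of BCL-XL in HT1080 cells that stably express an N-terminal HiBiT-BCL-XL fusion delivered by lentivirus. Cells were added to compound-spotted 384-well plates, and luminescence was read on a PHERAstar FSX reader. Signal was expressed relative to DMSO controls, curves were fitted by four-parameter logistic regression, and for hook-shaped curves the Ymin point served as the bottom plateau when calculating EC50.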

| Structure (SMILES) | Ymin (6 h) | Ymin (24 h) | DC50 (6 h, read-out: EC50 (6 h)) [nM] | DC50 (24 h, read-out: EC50 (24 h)) [nM] |
| --- | --- | --- | --- | --- |
| Cc1cc(OCCCC2CCN(CC(=O)Nc3cccc4c(C5CCC(=O)NC5=O)nn(C)c34)CC2)ccc1-c1ccc(N2CCc3cccc(C(=O)Nc4nc5ccccc5s4)c3C2)nc1C(=O)O (stereo not drawn) [Compound 236, 6-(8-(Benzo[d]thiazol-2-ylcarbamoyl)-3,4-dihydroisoquinolin-2(1H)-yl)-3-(4-(3-(1-(2-((3-(2,6-dioxopiperidin-3-yl)-1-methyl-1H-indazol-7-yl)amino)-2-oxoethyl)piperidin-4-yl)propoxy)-2-methylphenyl)picolinic acid] | B (50% ≤ Ymin < 70%) | B (50% ≤ Ymin < 70%) | < 100 | < 100 |
| Cc1c(Oc2ccc(CCCN3CCN(c4ccc5c(C6CCC(=O)NC6=O)nn(C)c5c4)CC3)cc2)cccc1-c1ccc(N2CCc3cccc(C(=O)Nc4nc5ccccc5s4)c3C2)nc1C(=O)O (stereo not drawn) [Compound 149, 6-(8-(benzo[d]thiazol-2-ylcarbamoyl)-3,4-dihydroisoquinolin-2(1H)-yl)-3-(3-(4-(3-(4-(3-(2,6-dioxopiperidin-3-yl)-1-methyl-1H-indazol-6-yl)piperazin-1-yl)propyl)phenoxy)-2-methylphenyl)picolinic acid] | B (50% ≤ Ymin < 70%) | A (Ymin < 50%) | < 100 | < 100 |
| Cc1cc(OCCCC2(C)CCN(CC(=O)Nc3ccc4c(C5CCC(=O)NC5=O)nn(C)c4c3)CC2)ccc1-c1ccc(N2CCc3cccc(C(=O)Nc4nc5ccccc5s4)c3C2)nc1C(=O)O (stereo not drawn) [Compound 264, 6-[8-(1,3-benzothiazol-2-ylcarbamoyl)-3,4-dihydro-1H-isoquinolin-2-yl]-3-[4-[3-[1-[2-[[3-(2,6-dioxo-3-piperidyl)-1-methyl-indazol-6-yl]amino]-2-oxo-ethyl]-4-methyl-4-piperidyl]propoxy]-2-methyl-phenyl]pyridine-2-carboxylic acid] | – | A (Ymin < 50%) | – | < 100 |
| Cc1c(O[C@H]2CC[C@H](CCC(=O)N3CCC(c4ccc5c(C6CCC(=O)NC6=O)nn(C)c5c4)CC3)CC2)cccc1-c1ccc(N2CCc3cccc(C(=O)Nc4nc5ccccc5s4)c3C2)nc1C(=O)O (stereo partly drawn) [Compound 259a, 6-(8-(benzo[d]thiazol-2-ylcarbamoyl)-3,4-dihydroisoquinolin-2(1H)-yl)-3-(3-(((1r,4r)-4-(3-(4-(3-(2,6-dioxopiperidin-3-yl)-1-methyl-1H-indazol-6-yl)piperidin-1-yl)-3-oxopropyl)cyclohexyl)oxy)-2-methylphenyl)picolinic acid] | – | A (Ymin < 50%) | – | < 100 |
| Cc1c(O[C@H]2CC[C@H](CCCN3CC[C@@H](c4cccc5c(C6CCC(=O)NC6=O)nn(C)c45)C3)CC2)cccc1-c1ccc(N2CCc3cccc(C(=O)Nc4nc5ccccc5s4)c3C2)nc1C(=O)O (single isomer, unassigned) [Compound 320b] | – | A (Ymin < 50%) | – | < 100 |
| Cc1c(O[C@H]2CC[C@H](CCCC(C)(C)N3CCN(c4cccc5c(C6CCC(=O)NC6=O)nn(C)c45)CC3)CC2)cccc1-c1ccc(N2CCc3cccc(C(=O)Nc4nc5ccccc5s4)c3C2)nc1C(=O)O (stereo partly drawn) [Compound 342a, 6-(8-(benzo[d]thiazol-2-ylcarbamoyl)-3,4-dihydroisoquinolin-2(1H)-yl)-3-(3-(((1s,4r)-4-(4-(4-(3-(2,6-dioxopiperidin-3-yl)-1-methyl-1H-indazol-7-yl)piperazin-1-yl)-4-methylpentyl)cyclohexyl)oxy)-2-methylphenyl)picolinic acid] | – | A (Ymin < 50%) | – | < 100 |
| Cc1c(-c2ccc(N3CCc4cccc(C(=O)Nc5nc6ccccc6s5)c4C3)nc2C(=O)NCCCCCCCCCCCC(=O)Nc2cccc3c(C4CCC(=O)NC4=O)nn(C)c23)cnn1CC12CC3CC(CC(C3)C1)C2 (stereo not drawn) [Compound 110, 2-(5-(1-((3r,5r,7r)-adamantan-1-ylmethyl)-5-methyl-1H-pyrazol-4-yl)-6-((12-((3-(2,6-dioxopiperidin-3-yl)-1-methyl-1H-indazol-7-yl)amino)-12-oxododecyl)carbamoyl)pyridin-2-yl)-N-(benzo[d]thiazol-2-yl)-1,2,3,4-tetrahydroisoquinoline-8-carboxamide] | B (50% ≤ Ymin < 70%) | – | < 100 | – |
| Cc1c(O[C@H]2CC[C@H](CCCCN3CCC[C@H](c4cccc5c(C6CCC(=O)NC6=O)nn(C)c45)C3)CC2)cccc1-c1ccc(N2CCc3cccc(C(=O)Nc4nc5ccccc5s4)c3C2)nc1C(=O)O (single isomer, unassigned) [Compound 351a] | – | A (Ymin < 50%) | – | < 100 |
| Cc1c(O[C@H]2CC[C@H](CC[C@@H](C)N3CCN(c4ccc5c(C6CCC(=O)NC6=O)nn(C)c5c4)CC3)CC2)cccc1-c1ccc(N2CCc3cccc(C(=O)Nc4nc5ccccc5s4)c3C2)nc1C(=O)O (single isomer, unassigned) [Compound 281b] | – | A (Ymin < 50%) | – | < 100 |
| Cc1c(OCCC[C@H]2CCCN(CC(=O)Nc3cccc4c(C5CCC(=O)NC5=O)nn(C)c34)C2)cccc1-c1ccc(N2CCc3cccc(C(=O)Nc4nc5ccccc5s4)c3C2)nc1C(=O)O (single isomer, unassigned) [Compound 210b] | C (Ymin ≥ 70%) | C (Ymin ≥ 70%) | 1000 to 10000 | < 100 |
| Cc1c(OCCC[C@H]2CCCN(CC(=O)Nc3ccc4c(C5CCC(=O)NC5=O)nn(C)c4c3)C2)cccc1-c1ccc(N2CCc3cccc(C(=O)Nc4nc5ccccc5s4)c3C2)nc1C(=O)O (stereo partly drawn) [Compound 207b, 6-(8-(benzo[d]thiazol-2-ylcarbamoyl)-3,4-dihydroisoquinolin-2(1H)-yl)-3-(3-(3-((3R)-1-(2-((3-(2,6-dioxopiperidin-3-yl)-1-methyl-1H-indazol-6-yl)amino)-2-oxoethyl)piperidin-3-yl)propoxy)-2-methylphenyl)picolinic acid] | B (50% ≤ Ymin < 70%) | A (Ymin < 50%) | < 100 | < 100 |
| Cc1c(Oc2ccccc2CCC(=O)Nc2cccc3c(C4CCC(=O)NC4=O)nn(C)c23)cccc1-c1ccc(N2CCc3cccc(C(=O)Nc4nc5ccccc5s4)c3C2)nc1C(=O)O (stereo not drawn) [Compound 243, 6-(8-(benzo[d]thiazol-2-ylcarbamoyl)-3,4-dihydroisoquinolin-2(1H)-yl)-3-(3-(2-(3-((3-(2,6-dioxopiperidin-3-yl)-1-methyl-1H-indazol-7-yl)amino)-3-oxopropyl)phenoxy)-2-methylphenyl)picolinic acid] | C (Ymin ≥ 70%) | B (50% ≤ Ymin < 70%) | 100 to 1000 | < 100 |
| Cc1c(O[C@H]2CC[C@H](CCCN3CCC(Oc4cccc5c(C6CCC(=O)NC6=O)nn(C)c45)CC3)CC2)cccc1-c1ccc(N2CCc3cccc(C(=O)Nc4nc5ccccc5s4)c3C2)nc1C(=O)O (stereo partly drawn) [Compound 338a, 6-(8-(benzo[d]thiazol-2-ylcarbamoyl)-3,4-dihydroisoquinolin-2(1H)-yl)-3-(3-(((1s,4r)-4-(3-(4-((3-(2,6-dioxopiperidin-3-yl)-1-methyl-1H-indazol-7-yl)oxy)piperidin-1-yl)propyl)cyclohexyl)oxy)-2-methylphenyl)picolinic acid] | – | A (Ymin < 50%) | – | < 100 |
